# Experimental data: article PMC12249711, “Comprehensive Evaluation of 1H-Isoindole-1,3(2H)-Dione Derivatives: Pharmacokinetic Studies and Analgesic Potential in Various Pain Models” (International Journal of Molecular Sciences, 2025)
# Like-named read-outs stand apart in the source and are kept apart here.
# What was measured:
# [1] = Pharmacokinetic study after single i.p. administration, serum and brain concentrations by LC-MS/MS, non-compartmental analysis; assay type: in vivo, Albino Swiss mice; conditions: mice; for Kp: brain/serum, read-out: Kbrain/serum (brain/serum partitioning coefficient); for Kp / MRT / Tmax / half-life / k el / CL/F / Vd/F / AUC0-inf / AUC0–8h: 5 mg/kg i.p.; for half-life: read-out: t1/2(λz) half-life in the elimination phase (converted); for k el: read-out: λz (terminal elimination rate constant) (converted); for Vd/F: read-out: Vz/F
# Method: The compounds F1, F2, F3, and F4 were suspended in a 1% Tween 80 solution in sterile water for injection and given to mice i.p. at a dose of 5 mg/kg (n = 3 per time point; all mice in procedure = 96) as a single injection at a volume of 10 mL/kg. At specific time points (5; 15; 30; 60; 120; 240; 360; and 480 min after compound administration), mice were sacrificed by decapitation under isoflurane (5%) anesthesia to harvest blood and brain for assays. After allowing the blood to coagulate for 20 min at room temperature, blood samples were centrifuged for 10 min at 8000 rpm (Eppendorf miniSpin centrifuge) to obtain serum. Moreover, brains were removed (at the same time point) from skulls and washed with 0.9% NaCl. The obtained serum and brains were stored at −80 °C until analysis.
# Concentrations of compounds F1 to F4 in mice brains and serum were measured by the liquid chromatography tandem mass spectrometry (LC-MS/MS) method using a Sciex QTRAP 4500 triple quadrupole mass spectrometer coupled to an Excion LC AC HPLC system (both from Danaher Corporation, Washington, DC, USA). The brains were homogenized in distilled water at the ratio of 1:4 (w/v) with a tissue homogenizer ULTRA-TURRAX T10 basic (IKA, Königswinter, Germany). The stock solutions of analyzed compounds were prepared in methanol at the concentration of 1 mg/mL. For the preparation of calibration curves, working standard solutions were prepared in methanol by the serial dilution of the stock solution at the following concentrations: 0.005; 0.01; 0.1; 0.25; 0.5; 1; 2.5; 5; and 10 µg/mL. To prepare samples for the calibration curve, 45 μL of matrix (blank plasma or brain homogenate) was spiked with 5 μL of standard working solution at an appropriate concentration level and vortexed for 10 s. Brain homogenates or serum samples (50 µL) as well as calibration samples were deproteinized with 150 μL of 0.1% formic acid in acetonitrile with an addition of internal standard (valsartan), shaken for 10 min (IKA Vibrax VXR, Königswinter, Germany), and centrifuged for 5 min at a speed of 8000× g (Eppendorf miniSpin centrifuge, Hamburg, Germany). Then, brain or serum supernatants were transferred into the autosampler vials. The autosampler temperature was maintained at 15 °C and a sample volume of 1 μL was injected into the LC-MS/MS system.
# Chromatographic separation was carried out on the Hypersil GoldTM C18 analytical column (2.1 × 50 mm, 3 µm, Thermo Scientific, Waltham, MA, USA) with the oven temperature set at 30 °C. The mobile phase containing 0.1% formic acid in acetonitrile and 0.1% formic acid in water was delivered at a flow rate of […] in the gradient mode. Electrospray ionization (ESI) in the positive ion mode was used for ion production. The tandem mass spectrometer was operated at unit resolution in the selected reaction monitoring mode (SRM), monitoring the transitions of the protonated molecular ions m/z 366 to 201 (CE = 40 eV) and m/z 366 to 160 (CE = 40 eV) for compound F1, m/z 396 to 190 (CE = 39 eV) and m/z 396 to 160 (CE = 49 eV) for compound F2, m/z 434 to 145 (CE = 95 eV) and m/z 434 to 160 (CE = 47 eV) for compound F3, and m/z 456 to 167 (CE = 27 eV) and m/z 456 to 152 (CE = 85 eV) for compound F4. The first pair was used as a quantifier and the second for the identity verification—qualifier. One pair (m/z 436 to 235; CE = 42 eV) was monitored for valsartan used as an internal standard. The mass spectrometric conditions were optimized by continuous infusion of the standard solutions at the rate of 7 μL/min using a Harvard infusion pump (Harvard Apparatus, Holliston, MA, USA). The ion source temperature was maintained at 450 °C and the ion spray voltage was set at 4500 V. The curtain gas (CUR) was set at 40 and the collision gas (CAD) at Medium. The calibration curves were constructed by plotting the ratio of the peak area of the studied compound to internal standard (IS) versus drug concentration and generated by weighted (1/x·x) linear regression analysis. […]
# mice = assay: Formalin test; assay type: in vivo, Albino Swiss mice; conditions: vs vehicle; for Reduction of pain reaction (licking duration), neurogenic phase: phase I (0–5 min); for Reduction of pain response, inflammatory phase: phase II (15–30 min)
# Method: The pain reaction was induced by intraplantar (i.pl.) injection of 20 μL of 2.5% formalin solution into the right hind paw of the mouse (n = 136). […] Time (in seconds) spent on licking or biting the injected hind paw in selected intervals, 0–5 min (neurogenic phase) and 15–30 min (inflammatory phase), was measured in each group and was an indicator of nociceptive behavior. The procedure was based on the method described by with some modifications by.
# rats = assay: Carrageenan-induced paw edema (plethysmometer); assay type: in vivo, Wistar rats; conditions: for Change in Edema Volume: mean ± SEM, rats; for Reduction in edema volume: vs control
# Method: The acute and local inflammation and paw edema was induced by intraplantar (i.pl.) injection of 0.1 mL of 1% carrageenan solution in PBS into the rat’s right hind paw, according to the modified method of Winter and Lence, as described previously; (n = 84). […] Vehicle (1% Tween 80) was administered by the same route as the tested compounds.
# [2] = design: method as in PMID 35396875; conditions: within the tested dose range; cited from earlier work
# [3] = Albino Swiss, mouse, ip, serum, 5 min after 5 mg/kg i.p., read-out: Cmax (maximal concentration)
# [4] = brain, 5 mg/kg i.p. single dose
# [5] = serum, 5 mg/kg i.p. single dose
# [6] = 10 mg/kg i.p., 1 h after carrageenan
# [7] = 10 mg/kg i.p., 2 h after carrageenan
# [8] = 10 mg/kg i.p., 3 h after carrageenan
# [9] = 20 mg/kg i.p., 1 h after carrageenan
# [10] = 20 mg/kg i.p., 2 h after carrageenan
# [11] = 20 mg/kg i.p., 3 h after carrageenan
SMILES,"Kp ([1]; Albino Swiss, mouse, ip)","MRT ([1]; Albino Swiss, mouse, ip, brain)","Tmax ([1]; Albino Swiss, mouse, ip, brain)","half-life ([1]; Albino Swiss, mouse, ip, brain)","k el ([1]; Albino Swiss, mouse, ip, brain)","Cmax [1, 3]","CL/F ([1]; Albino Swiss, mouse, ip, serum)","MRT ([1]; Albino Swiss, mouse, ip, serum)","Tmax ([1]; Albino Swiss, mouse, ip, serum)","Vd/F ([1]; Albino Swiss, mouse, ip, serum)","half-life ([1]; Albino Swiss, mouse, ip, serum)","k el ([1]; Albino Swiss, mouse, ip, serum)",AUC0-inf ([1]; brain),AUC0–8h ([1]; brain),"Cmax [1, 4]",AUC0-inf ([1]; serum),AUC0–8h ([1]; serum),"Cmax [1, 5]","Reduction of pain reaction (licking duration), neurogenic phase (mice; 5 mg/kg i.p.)","Reduction of pain reaction (licking duration), neurogenic phase (mice; 10 mg/kg i.p.)",further results
O=C1c2ccccc2C(=O)N1CC(O)CN1CCN(c2ccccc2)CC1 (stereo not drawn) [Compound F1],1.77,81.6 min,4.98 min,54.6 min,0.000211 s⁻¹,596 ng/mL,395 mL/min/kg,79.2 min,4.98 min,32.6 L/kg,57 min,0.000203 s⁻¹,374.60 µg∙h/L(kg),368.04 µg∙h/L(kg),970 µg/L(kg),211.22 µg∙h/L(kg),205.95 µg∙h/L(kg),595.75 µg/L(kg),did not attenuate the nociceptive response,44.9%,"Reduction of pain reaction (licking duration), neurogenic phase (mice; 20 mg/kg i.p.): 62.7%; Reduction of pain response, inflammatory phase (mice; 5 mg/kg i.p.): 37%; Reduction of pain response, inflammatory phase (mice; 10 mg/kg i.p.): 66%; Reduction of pain response, inflammatory phase (mice; 20 mg/kg i.p.): 90%; Change in Edema Volume (rats; [6]): 1.14 ± 0.05 mL; Change in Edema Volume (rats; [7]): 1.51 ± 0.09 mL; Change in Edema Volume (rats; [8]): 1.67 ± 0.09 mL; Reduction in edema volume (rats; 10 mg/kg, 1 h): 27.8%; Reduction in edema volume (rats; 10 mg/kg, 2 h): 17.5%; Reduction in edema volume (rats; 10 mg/kg, 3 h): 17%; Change in Edema Volume (rats; [9]): 1.09 ± 0.02 mL; Change in Edema Volume (rats; [10]): 1.15 ± 0.07 mL; Change in Edema Volume (rats; [11]): 1.55 ± 0.09 mL; Reduction in edema volume (rats; 20 mg/kg, 2 h): 37.2%; Reduction in edema volume (rats; 20 mg/kg, 3 h): 22.1%; Effect on locomotor activity / sedation [2]: mild sedative effects"
COc1ccccc1N1CCN(CC(O)CN2C(=O)c3ccccc3C2=O)CC1 (stereo not drawn) [Compound F2],0.79,84.6 min,4.98 min,54 min,0.000214 s⁻¹,700 ng/mL,279 mL/min/kg,68.4 min,4.98 min,18.2 L/kg,45 min,0.000256 s⁻¹,237.16 µg∙h/L(kg),230.83 µg∙h/L(kg),465.38 µg/L(kg),298.26 µg∙h/L(kg),292.78 µg∙h/L(kg),699.75 µg/L(kg),did not attenuate the nociceptive response,44.6%,"Reduction of pain reaction (licking duration), neurogenic phase (mice; 20 mg/kg i.p.): 53%; Reduction of pain response, inflammatory phase (mice; 5 mg/kg i.p.): 51%; Reduction of pain response, inflammatory phase (mice; 10 mg/kg i.p.): 73%; Reduction of pain response, inflammatory phase (mice; 20 mg/kg i.p.): 87%; Change in Edema Volume (rats; [6]): 1.51 ± 0.04 ns mL; Change in Edema Volume (rats; [7]): 1.82 ± 0.03 mL; Change in Edema Volume (rats; [8]): 1.99 ± 0.02 ns mL; Reduction in edema volume (rats; 10 mg/kg, 2 h): approximately 9%; Change in Edema Volume (rats; [9]): 1.15 ± 0.08 mL; Change in Edema Volume (rats; [10]): 1.63 ± 0.04 mL; Change in Edema Volume (rats; [11]): 1.91± 0.03 ns mL; Reduction in edema volume (rats; 20 mg/kg, 1 h): 26.8%; Reduction in edema volume (rats; 20 mg/kg, 2 h): 17.7%; Effect on locomotor activity / sedation [2]: dose-dependent suppression of spontaneous locomotor activity"
O=C1c2ccccc2C(=O)N1CC(O)CN1CCN(c2cccc(C(F)(F)F)c2)CC1 (stereo not drawn) [Compound F3],2.05,190 min,15 min,78.6 min,0.000147 s⁻¹,210 ng/mL,297 mL/min/kg,168 min,4.98 min,32.4 L/kg,75.6 min,0.000153 s⁻¹,573.90 µg∙h/L(kg),520.05 µg∙h/L(kg),202.25 µg/L(kg),280.26 µg∙h/L(kg),258.81 µg∙h/L(kg),210.25 µg/L(kg),did not attenuate the nociceptive response,did not attenuate the nociceptive response,"Reduction of pain reaction (licking duration), neurogenic phase (mice; 20 mg/kg i.p.): 41.6%; Reduction of pain response, inflammatory phase (mice; 5 mg/kg i.p.): 34.5%; Reduction of pain response, inflammatory phase (mice; 10 mg/kg i.p.): 57.5%; Reduction of pain response, inflammatory phase (mice; 20 mg/kg i.p.): 80.9%; Change in Edema Volume (rats; [6]): 1.37 ± 0.04 ns mL; Change in Edema Volume (rats; [7]): 1.70 ± 0.04 ns mL; Change in Edema Volume (rats; [8]): 1.89 ± 0.03 mL; Reduction in edema volume (rats; 10 mg/kg, 3 h): 9.5%; Change in Edema Volume (rats; [9]): 1.14 ± 0.05 mL; Change in Edema Volume (rats; [10]): 1.47 ± 0.07 mL; Change in Edema Volume (rats; [11]): 1.67 ± 0.06 mL; Reduction in edema volume (rats; 20 mg/kg, 1 h): 16.8%; Reduction in edema volume (rats; 20 mg/kg, 2 h): 19.2%; Reduction in edema volume (rats; 20 mg/kg, 3 h): 20.1%; Effect on locomotor activity / sedation [2]: mild sedative effects"
